This is an account of results in ChEMBL document CHEMBL2413047, “Identification of GNE-293, a potent and selective PI3Kδ inhibitor: navigating in vitro genotoxicity while improving potency and selectivity” (Bioorg Med Chem Lett, 2013).

Each structure is given as a SMILES string. ≈ marks a conversion by molar mass, not a printed value.

The target in series [1] is T1, Phosphatidylinositol 4,5-bisphosphate 3-kinase catalytic subunit delta isoform (Homo sapiens, UniProt O00329).
T1 sequence (O00329 whole entry): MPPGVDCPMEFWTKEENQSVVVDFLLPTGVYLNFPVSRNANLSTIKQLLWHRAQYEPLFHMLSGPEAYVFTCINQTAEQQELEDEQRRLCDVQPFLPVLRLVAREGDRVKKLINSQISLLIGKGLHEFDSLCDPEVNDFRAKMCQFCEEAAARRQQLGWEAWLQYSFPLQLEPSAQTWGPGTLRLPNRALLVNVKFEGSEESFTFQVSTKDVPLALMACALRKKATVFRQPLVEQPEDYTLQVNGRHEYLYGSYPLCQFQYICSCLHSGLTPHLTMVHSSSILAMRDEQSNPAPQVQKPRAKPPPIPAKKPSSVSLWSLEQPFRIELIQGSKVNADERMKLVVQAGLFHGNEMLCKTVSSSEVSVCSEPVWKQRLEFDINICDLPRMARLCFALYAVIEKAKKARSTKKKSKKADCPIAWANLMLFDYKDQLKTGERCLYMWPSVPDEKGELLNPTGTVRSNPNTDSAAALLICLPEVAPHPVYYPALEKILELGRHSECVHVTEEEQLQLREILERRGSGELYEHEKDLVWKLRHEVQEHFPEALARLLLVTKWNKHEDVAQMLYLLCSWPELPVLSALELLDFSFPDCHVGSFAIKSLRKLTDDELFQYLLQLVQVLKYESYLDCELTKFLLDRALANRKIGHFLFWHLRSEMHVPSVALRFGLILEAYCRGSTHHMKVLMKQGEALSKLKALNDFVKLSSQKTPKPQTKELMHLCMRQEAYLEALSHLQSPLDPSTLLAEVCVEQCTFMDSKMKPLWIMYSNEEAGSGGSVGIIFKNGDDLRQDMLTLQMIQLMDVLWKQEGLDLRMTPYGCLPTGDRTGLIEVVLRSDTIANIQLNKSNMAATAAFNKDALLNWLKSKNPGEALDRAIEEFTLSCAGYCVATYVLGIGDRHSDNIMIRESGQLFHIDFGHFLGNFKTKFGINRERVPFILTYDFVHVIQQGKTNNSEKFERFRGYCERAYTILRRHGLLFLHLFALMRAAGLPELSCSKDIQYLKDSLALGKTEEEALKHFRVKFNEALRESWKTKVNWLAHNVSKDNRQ
The experiment in a line: Inhibition of PI3Kdelta in human whole blood assessed as expression of CD69 in B cell preincubated for 1 hr by flow cytometry. The class given is tissue-based. (In flow cytometry, cells or beads pass a laser one at a time.)

Series [2] addresses T1, Phosphatidylinositol 4,5-bisphosphate 3-kinase catalytic subunit delta isoform. The experiment in a line: Inhibition of PI3Kdelta (unknown origin) assessed as formation of PIP3 by competitive fluorescence polarization assay. Particulars: read-out: Ki(app). A general note: Fluorescence polarisation rises when a labelled molecule tumbles more slowly, as on binding a larger partner.

In series [3] the target is Phosphatidylinositol 4-phosphate 3-kinase C2 domain-containing subunit beta (Homo sapiens) (UniProt O00750). Put plainly: Inhibition of PI3KC2b (unknown origin) at 10 uM.
Series [4] concerns the target Maternal embryonic leucine zipper kinase (Homo sapiens) (UniProt Q14680). Put plainly: Inhibition of MELK (unknown origin) at 10 uM.
Series [5] concerns Serine/threonine-protein kinase B-raf (Homo sapiens), P15056 [V600E]. Put plainly: Inhibition of B-Raf V599E mutant (unknown origin) at 10 uM.
A short description of series [6]: Kinetic solubility of the compound. Format: physicochemical. Particulars: read-out: Kinetic_solubility.
Series [7] can be described thus: Genotoxicity in human lymphocytes assessed as chromosome aberration. Particulars: lymphocyte. The class given is toxicity, cell-based.
The subject of series [8] is CHO-K1. The experiment in a line: Genotoxicity in CHOK1 cells by micronucleus assay. Particulars: chinese hamster. Format: toxicity, cell-based, Cricetulus griseus.
Series [9] can be described thus: Genotoxicity in human lymphocytes assessed as chromosome aberration at […] relative to control. The class given is toxicity, cell-based. Particulars: lymphocyte.
Series [10] in a line: AUC in dog at 10 mg/kg, po. Format: ADME, organism-based, Canis lupus familiaris. Details: dose 10 mg/kg, route oral. Particulars: plasma.
The nature of series [11]: AUC in rat at 5 mg/kg, po. The class given is ADME, organism-based. Details: dose 5 mg/kg, route oral. Particulars: plasma.
The nature of series [12]: AUC in dog at 2 mg/kg, po. Particulars: plasma. Details: dose 2 mg/kg, route oral. The class given is ADME, organism-based, Canis lupus familiaris.
Series [13] in a line: Cmax in dog at 2 mg/kg, po. The class given is ADME, organism-based, Canis lupus familiaris. More on the design: dose 2 mg/kg, route oral. Particulars: in vivo.
The nature of series [14]: Cmax in dog at 10 mg/kg, po. Format: ADME, organism-based, Canis lupus familiaris. More on the design: dose 10 mg/kg, route oral. Particulars: in vivo.
A short description of series [15]: Oral bioavailability in dog at 10 mg/kg. Particulars: in vivo. The class given is ADME, organism-based, Canis lupus familiaris.
Series [16] is described as follows: Cmax in rat at 5 mg/kg, po. The class given is ADME, organism-based. Details: dose 5 mg/kg, route oral. Particulars: in vivo.
Series [17] can be described thus: Oral bioavailability in rat at 5 mg/kg. Format: ADME, organism-based. Particulars: in vivo.
Series [18] can be described thus: Oral bioavailability in dog at 2 mg/kg. The class given is ADME, organism-based, Canis lupus familiaris. Particulars: in vivo.
Series [19] can be described thus: Half life in rat at 1 mg/kg, iv. Format: ADME, organism-based. Details: dose 1 mg/kg, route intravenous. Particulars: in vivo.
A short description of series [20]: Half life in dog at 1 mg/kg, iv. More on the design: dose 1 mg/kg, route intravenous. Particulars: in vivo. The class given is ADME, organism-based, Canis lupus familiaris.
A short description of series [21]: Volume of distribution at steady state in dog at 1 mg/kg, iv. Format: ADME, organism-based, Canis lupus familiaris. More on the design: dose 1 mg/kg, route intravenous. Particulars: in vivo, read-out: Vdss.
Series [22] in a line: Volume of distribution at steady state in rat at 1 mg/kg, iv. The class given is ADME, organism-based. More on the design: dose 1 mg/kg, route intravenous. Particulars: in vivo, read-out: Vdss.
A short description of series [23]: Clearance in rat at 1 mg/kg, iv. More on the design: dose 1 mg/kg, route intravenous. The class given is ADME, organism-based. Particulars: in vivo.
Series [24] is described as follows: Clearance in dog at 1 mg/kg, iv. Details: dose 1 mg/kg, route intravenous. Particulars: in vivo. The class given is ADME, organism-based, Canis lupus familiaris.
Series [25] in a line: Plasma protein binding in dog. The class given is ADME, cell-free, Canis lupus familiaris. Particulars: read-out: PPB (converted).
Series [26] is described as follows: Plasma protein binding in rat. The class given is ADME, cell-free. Particulars: read-out: PPB (converted).
Series [27] addresses Phosphatidylinositol 4-kinase beta (Homo sapiens) (UniProt Q9UBF8). The experiment in a line: Inhibition of PI4Kb (unknown origin) at 1 uM.
Series [28] addresses Serine/threonine-protein kinase B-raf (Homo sapiens) (UniProt P15056). Put plainly: Inhibition of B-Raf (unknown origin) at 1 uM.
Series [29] can be described thus: Genotoxicity in human lymphocytes assessed as mitotic index at […] (reference value: 11.1). The class given is toxicity, cell-based. Particulars: lymphocyte.
Series [30] concerns the target Phosphatidylinositol 4,5-bisphosphate 3-kinase catalytic subunit alpha isoform (Homo sapiens, UniProt P42336). The experiment in a line: Inhibition of PI3Kalpha (unknown origin) assessed as formation of PIP3 by competitive fluorescence polarization assay. Particulars: read-out: Ki(app).

Phosphatidylinositol 4,5-bisphosphate 3-kinase catalytic subunit alpha isoform, sequence (P42336 whole entry, canonical isoform): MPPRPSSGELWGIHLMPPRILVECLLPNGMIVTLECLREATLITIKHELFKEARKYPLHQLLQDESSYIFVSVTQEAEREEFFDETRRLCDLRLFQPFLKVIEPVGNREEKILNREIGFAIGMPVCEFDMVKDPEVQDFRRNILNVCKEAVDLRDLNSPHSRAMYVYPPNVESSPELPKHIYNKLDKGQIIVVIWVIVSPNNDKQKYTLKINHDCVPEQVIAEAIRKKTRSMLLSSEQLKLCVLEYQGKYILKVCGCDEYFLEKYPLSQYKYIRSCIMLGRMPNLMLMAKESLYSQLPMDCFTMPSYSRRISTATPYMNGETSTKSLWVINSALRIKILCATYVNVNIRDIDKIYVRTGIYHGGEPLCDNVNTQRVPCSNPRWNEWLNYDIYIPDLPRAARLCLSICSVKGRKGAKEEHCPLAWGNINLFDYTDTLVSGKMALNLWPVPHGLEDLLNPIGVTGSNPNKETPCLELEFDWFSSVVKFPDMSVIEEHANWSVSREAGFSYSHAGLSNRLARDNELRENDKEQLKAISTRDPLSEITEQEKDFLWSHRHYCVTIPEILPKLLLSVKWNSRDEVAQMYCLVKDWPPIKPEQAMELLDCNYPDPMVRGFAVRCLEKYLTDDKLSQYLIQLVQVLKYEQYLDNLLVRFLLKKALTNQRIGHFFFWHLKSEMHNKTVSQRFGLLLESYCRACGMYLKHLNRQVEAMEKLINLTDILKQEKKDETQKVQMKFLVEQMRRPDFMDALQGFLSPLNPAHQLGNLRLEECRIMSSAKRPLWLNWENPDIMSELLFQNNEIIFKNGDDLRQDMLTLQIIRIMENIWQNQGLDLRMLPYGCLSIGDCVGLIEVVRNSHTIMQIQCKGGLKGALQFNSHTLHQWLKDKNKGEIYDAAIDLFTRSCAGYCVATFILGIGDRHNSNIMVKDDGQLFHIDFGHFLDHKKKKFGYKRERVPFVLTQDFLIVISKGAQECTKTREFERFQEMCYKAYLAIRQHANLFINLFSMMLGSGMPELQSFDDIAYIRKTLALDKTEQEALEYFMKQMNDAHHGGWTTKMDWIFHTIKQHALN
Maternal embryonic leucine zipper kinase (Homo sapiens), sequence (Q14680 whole entry, looked up): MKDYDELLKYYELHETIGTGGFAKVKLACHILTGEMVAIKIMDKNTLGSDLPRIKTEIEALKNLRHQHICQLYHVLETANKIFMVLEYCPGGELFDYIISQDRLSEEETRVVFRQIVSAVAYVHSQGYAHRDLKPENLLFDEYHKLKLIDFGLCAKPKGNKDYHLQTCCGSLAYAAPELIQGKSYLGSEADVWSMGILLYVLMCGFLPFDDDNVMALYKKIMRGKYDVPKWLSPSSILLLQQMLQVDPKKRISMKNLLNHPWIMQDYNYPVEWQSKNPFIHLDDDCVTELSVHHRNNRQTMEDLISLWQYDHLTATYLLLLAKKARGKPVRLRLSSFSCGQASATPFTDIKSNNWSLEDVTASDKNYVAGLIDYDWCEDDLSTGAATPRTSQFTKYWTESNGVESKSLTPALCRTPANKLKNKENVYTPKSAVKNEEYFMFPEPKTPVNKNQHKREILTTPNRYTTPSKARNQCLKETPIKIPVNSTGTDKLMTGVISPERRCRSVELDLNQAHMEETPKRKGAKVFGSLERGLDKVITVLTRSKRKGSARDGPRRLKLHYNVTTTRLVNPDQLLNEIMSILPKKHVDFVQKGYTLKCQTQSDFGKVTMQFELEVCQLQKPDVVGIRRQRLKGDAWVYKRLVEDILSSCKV
Serine/threonine-protein kinase B-raf (Homo sapiens), sequence (P15056 whole entry): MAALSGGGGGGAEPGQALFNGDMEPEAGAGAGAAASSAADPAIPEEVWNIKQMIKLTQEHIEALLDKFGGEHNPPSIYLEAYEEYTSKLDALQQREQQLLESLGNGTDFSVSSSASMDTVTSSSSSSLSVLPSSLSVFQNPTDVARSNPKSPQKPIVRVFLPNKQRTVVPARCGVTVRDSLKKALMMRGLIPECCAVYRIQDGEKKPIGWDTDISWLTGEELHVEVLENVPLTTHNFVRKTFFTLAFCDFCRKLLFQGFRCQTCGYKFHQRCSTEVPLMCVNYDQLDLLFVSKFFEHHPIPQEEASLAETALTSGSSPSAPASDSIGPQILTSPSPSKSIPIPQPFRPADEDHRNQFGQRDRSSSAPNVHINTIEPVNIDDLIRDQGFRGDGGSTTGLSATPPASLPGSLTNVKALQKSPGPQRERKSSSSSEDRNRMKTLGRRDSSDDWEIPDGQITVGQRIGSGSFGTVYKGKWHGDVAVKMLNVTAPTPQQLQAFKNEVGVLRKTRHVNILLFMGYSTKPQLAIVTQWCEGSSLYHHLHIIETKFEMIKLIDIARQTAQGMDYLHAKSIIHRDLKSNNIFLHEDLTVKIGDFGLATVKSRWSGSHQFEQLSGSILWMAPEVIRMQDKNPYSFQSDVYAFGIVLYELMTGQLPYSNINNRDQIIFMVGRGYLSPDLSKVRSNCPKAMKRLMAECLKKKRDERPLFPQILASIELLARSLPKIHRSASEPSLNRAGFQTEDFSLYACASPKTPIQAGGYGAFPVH
Phosphatidylinositol 4-phosphate 3-kinase C2 domain-containing subunit beta (Homo sapiens), sequence (O00750 whole entry, the tested form may be a part): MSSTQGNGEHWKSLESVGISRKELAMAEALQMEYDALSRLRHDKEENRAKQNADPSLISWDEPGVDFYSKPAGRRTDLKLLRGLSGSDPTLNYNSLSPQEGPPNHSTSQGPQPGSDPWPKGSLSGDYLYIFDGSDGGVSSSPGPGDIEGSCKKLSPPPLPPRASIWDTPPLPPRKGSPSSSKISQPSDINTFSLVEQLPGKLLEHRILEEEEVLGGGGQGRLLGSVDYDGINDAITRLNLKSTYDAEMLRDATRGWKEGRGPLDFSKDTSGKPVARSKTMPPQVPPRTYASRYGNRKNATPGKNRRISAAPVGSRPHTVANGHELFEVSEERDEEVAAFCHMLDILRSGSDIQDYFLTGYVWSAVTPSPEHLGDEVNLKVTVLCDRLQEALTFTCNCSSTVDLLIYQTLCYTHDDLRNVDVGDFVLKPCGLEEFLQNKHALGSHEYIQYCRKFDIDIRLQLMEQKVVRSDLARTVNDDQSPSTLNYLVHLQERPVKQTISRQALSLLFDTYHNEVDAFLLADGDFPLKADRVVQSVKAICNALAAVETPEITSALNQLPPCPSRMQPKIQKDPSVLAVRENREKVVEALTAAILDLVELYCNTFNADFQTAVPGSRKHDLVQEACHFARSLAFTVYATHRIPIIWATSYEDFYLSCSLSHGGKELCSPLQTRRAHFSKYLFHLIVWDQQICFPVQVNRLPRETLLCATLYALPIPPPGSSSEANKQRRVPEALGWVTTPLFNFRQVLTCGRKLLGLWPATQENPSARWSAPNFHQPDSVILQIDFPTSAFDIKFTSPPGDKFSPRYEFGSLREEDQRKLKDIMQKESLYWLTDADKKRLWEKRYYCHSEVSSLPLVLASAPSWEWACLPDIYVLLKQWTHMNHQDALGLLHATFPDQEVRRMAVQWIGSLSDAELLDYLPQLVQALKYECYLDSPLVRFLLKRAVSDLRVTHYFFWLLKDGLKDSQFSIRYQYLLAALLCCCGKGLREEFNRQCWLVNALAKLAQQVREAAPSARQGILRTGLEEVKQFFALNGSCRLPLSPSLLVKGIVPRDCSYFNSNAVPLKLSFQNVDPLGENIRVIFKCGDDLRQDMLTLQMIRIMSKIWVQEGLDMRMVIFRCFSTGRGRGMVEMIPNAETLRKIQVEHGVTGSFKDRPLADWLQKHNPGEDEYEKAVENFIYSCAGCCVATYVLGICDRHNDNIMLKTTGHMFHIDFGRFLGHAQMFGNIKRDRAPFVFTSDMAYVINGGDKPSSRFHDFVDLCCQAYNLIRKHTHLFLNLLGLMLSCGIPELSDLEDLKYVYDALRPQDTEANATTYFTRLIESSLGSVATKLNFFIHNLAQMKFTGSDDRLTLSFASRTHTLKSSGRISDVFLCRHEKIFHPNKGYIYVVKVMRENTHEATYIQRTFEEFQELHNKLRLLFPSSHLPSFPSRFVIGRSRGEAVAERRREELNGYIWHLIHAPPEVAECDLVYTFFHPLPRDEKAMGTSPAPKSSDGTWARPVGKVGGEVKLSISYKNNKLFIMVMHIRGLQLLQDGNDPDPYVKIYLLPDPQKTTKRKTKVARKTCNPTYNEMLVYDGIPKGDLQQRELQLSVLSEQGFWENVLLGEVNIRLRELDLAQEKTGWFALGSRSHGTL
Phosphatidylinositol 4-kinase beta (Homo sapiens), sequence (Q9UBF8 2-816 limits assumed): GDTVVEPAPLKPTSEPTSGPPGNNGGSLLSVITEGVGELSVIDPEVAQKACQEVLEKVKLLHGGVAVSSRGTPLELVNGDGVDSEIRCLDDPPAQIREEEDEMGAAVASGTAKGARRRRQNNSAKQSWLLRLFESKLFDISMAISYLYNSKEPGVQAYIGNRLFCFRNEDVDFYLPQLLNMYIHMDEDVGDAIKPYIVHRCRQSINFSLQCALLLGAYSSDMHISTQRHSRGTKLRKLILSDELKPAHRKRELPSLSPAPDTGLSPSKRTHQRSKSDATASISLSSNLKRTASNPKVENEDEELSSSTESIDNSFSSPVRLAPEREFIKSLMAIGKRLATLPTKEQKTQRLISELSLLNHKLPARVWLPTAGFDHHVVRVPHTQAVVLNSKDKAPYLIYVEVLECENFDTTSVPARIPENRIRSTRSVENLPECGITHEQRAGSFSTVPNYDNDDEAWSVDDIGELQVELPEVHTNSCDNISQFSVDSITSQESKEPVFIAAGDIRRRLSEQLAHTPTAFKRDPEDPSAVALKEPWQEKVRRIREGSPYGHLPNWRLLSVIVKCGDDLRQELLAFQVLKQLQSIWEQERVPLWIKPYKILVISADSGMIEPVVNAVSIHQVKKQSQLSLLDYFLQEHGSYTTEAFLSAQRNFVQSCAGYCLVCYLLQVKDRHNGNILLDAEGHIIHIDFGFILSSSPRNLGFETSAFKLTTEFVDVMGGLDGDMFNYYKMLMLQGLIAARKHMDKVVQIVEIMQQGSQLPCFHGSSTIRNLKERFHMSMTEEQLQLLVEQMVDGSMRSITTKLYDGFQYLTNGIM
Serine/threonine-protein kinase B-raf (Homo sapiens), P15056 [V600E], sequence (P15056 whole entry V600E): as the sequence (P15056 whole entry) above, with V600E counted along it

The term IC50 denotes the concentration needed to halve the response being measured. On to `CCc1nc2ccccc2n1-c1nc(N2CCOCC2)c2nc(N(C)C3CN(C4CCS(=O)(=O)CC4)C3)n(C)c2n1`, for which the IC50 in series [1] was 1.79 nM. In series [2], the Ki is 0.59 nM.

One may read the inhibition as how much of the control response was suppressed. Read a high inhibition as a strong effect. Turning to `CC(C)c1nc2ccccc2n1-c1nc(N2CCOCC2)c2nc(CN3CCC(C(C)(C)O)CC3)n(C)c2n1`, the inhibition was 72% in [3], 63% in series [4] and 53% in series [5]. Besides, in series [6], the solubility kinetic is 32 µM (≈ 17 µg/mL). The results for the Activity result in [7] and in series [8] were “Toxic” and “Non-toxic”, respectively.

`CCc1nc2ccccc2n1-c1nc(N2CCOCC2)c2sc(CN3CCC(C(C)(C)O)CC3)cc2n1`: the Activity entry in [7] and in [8] was “Non-toxic” each time.

For `CCc1nc2ccccc2n1-c1nc(N2CCOCC2)c2nc(CN3CCC(C(C)(C)O)CC3)n(C)c2n1`, the Activity result in [7] and in series [8] was “Toxic” each time.

Broadly, the AUC is the area under the concentration-time curve, a measure of exposure. Read a low AUC as less exposure. As usually defined, the Cmax is the peak of the concentration-time curve. Usually bioavailability stands for dose-corrected exposure relative to a reference, in per cent. As a reminder, the half-life is how long it takes for the measured level to halve. The low end stands for rapid decline, the high end for slow decline. One may read the clearance as the volume of plasma or blood freed of the substance per unit of time. Read a low clearance as a low capacity for elimination. Regarding `CC(C)c1nc2ccccc2n1-c1nc(N2CCOCC2)c2nc(OC3CN(C4CCS(=O)(=O)CC4)C3)n(C)c2n1`, the values for the Activity in [9] and in series [29] were 2% and 6.8%, respectively. Besides, the AUC in series [10] amounted to 128 µM·h; in series [11], 7.23 µM·h; in series [12] it was 21.1 µM·h. Also, the Cmax was 1740 nM in series [13], 8810 nM in series [14] and 1180 nM in [16]. Further, the bioavailability in [15] worked out at 100%; in series [17], 96.2%; in [18] it was 82.6%. The half-life was 2.59 h in series [19] and 11.6 h in series [20]. Moreover, the Vd turned out to be 2.2 L/kg in [21] and 3.6 L/kg in [22]. Further, the clearance in series [23] came out at 19.4 mL/min/kg; in series [24] it was 2.3 mL/min/kg. The fraction unbound is 0.2 in [25] and 0.183 in series [26]. For the same molecule, the values for the inhibition in series [27] and in [28] were 71% and 61%, respectively. Moreover, the IC50 in series [1] was 4.38 nM. In series [2], the Ki is 0.47 nM.

Turning to `CCc1nc2ccccc2n1-c1nc(N2CCOCC2)c2nc(CC3CN(C4CCS(=O)(=O)CC4)C3)n(C)c2n1`, in series [23], the clearance was 63 mL/min/kg. Moreover, in series [1], the IC50 is 4.02 nM. The Ki in series [2] amounted to 0.23 nM.

Take `CCc1nc2ccccc2n1-c1nc(N2CCOCC2)c2sc(C(=O)N3CCN(C(C)(C)C(N)=O)CC3)c(C)c2n1`: the Ki in [30] stood at 157 nM; in series [2], 12.7 nM.

On to `CCc1nc2ccccc2n1-c1nc(N2CCOCC2)c2nc(C(=O)N3CCN(C(C)(C)C(N)=O)CC3)n(C)c2n1`, for which the Ki turned out to be 236 nM in [30] and 0.8 nM in series [2].

As for `CCc1nc2ccccc2n1-c1nc(N2CCOCC2)c2nc(NC3CN(C4CCS(=O)(=O)CC4)C3)n(C)c2n1`, the IC50 in series [1] came out at 80.2 nM. The Ki in series [2] was 0.9 nM.

With `Cn1c(CN2CCC(C(C)(C)O)CC2)nc2c(N3CCOCC3)nc(-c3cccc4[nH]ncc34)nc21`, in series [2], the Ki came out at 2.3 nM.

For `CCc1nc2ccccc2n1-c1nc(N2CCOCC2)c2nc(C(=O)N3CCC(C(C)(C)O)CC3)n(C)c2n1`, in [1], the IC50 is 52.8 nM. In addition, in [2], the Ki is 3.1 nM.

As to `CCc1nc2ccccc2n1-c1nc(N2CCOCC2)c2nc(CC3CN(C(=O)C(C)C)C3)n(C)c2n1`, the IC50 in [1] turned out to be 9.96 nM. Moreover, in series [2], the Ki was found to be 0.36 nM.

Take `Cc1nc2ccccc2n1-c1nc(N2CCOCC2)c2nc(CN3CCC(C(C)(C)O)CC3)n(C)c2n1`: the Activity result in [7] and in [8] was “Toxic” throughout.

For `CNc1nc2ccccc2n1-c1nc(N2CCOCC2)c2nc(CN3CCC(C(C)(C)O)CC3)n(C)c2n1`, the Activity result in [8] is reported as “Toxic”.

Turning to `CCc1nc2ccccc2n1-c1nc(N2CCOCC2)c2nc(NC3CN(C(=O)C(C)C)C3)n(C)c2n1`, in series [2], the Ki is 0.88 nM.

Take `Cn1c(CN2CCC(C(C)(C)O)CC2)nc2c(N3CCOCC3)nc(-n3c(C4CC4)nc4ccccc43)nc21`: the results for the Activity result in series [7] and in [8] were “Toxic” and “Non-toxic”, respectively.

For `CC(C)(O)C1CCN(Cc2cc3nc(-c4cccc5[nH]ncc45)nc(N4CCOCC4)c3s2)CC1`, the Activity result in series [7] and in series [8] was “Non-toxic” throughout. For the same molecule, the Ki in series [2] was 1.1 nM.
